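Each compound was tested at five concentrations against cells in 96-well plates for 48 hours. Here, GI50 denotes the concentration required for 50% inhibition of growth. TGI marks complete inhibition of growth.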
What was measured:
Test in all cases: NCI-60 cell line screen, 48 h
786-0 renal = test system: 786-0 renal
COLO 205 colon = test system: COLO 205 colon
HOP-62 NSCLC = test system: HOP-62 NSCLC
MCF7 breast = test system: MCF7 breast
NCI-H23 lung = test system: NCI-H23 lung
NCI-H522 lung = test system: NCI-H522 lung
OVCAR-3 ovarian = test system: OVCAR-3 ovarian
OVCAR-8 ovarian = test system: OVCAR-8 ovarian
SN12C renal = test system: SN12C renal
SNB-19 CNS = test system: SNB-19 CNS

SMILES	GI50 (786-0 renal)	TGI (786-0 renal)	GI50 (COLO 205 colon)	TGI (COLO 205 colon)	GI50 (HOP-62 NSCLC)	TGI (HOP-62 NSCLC)	GI50 (MCF7 breast)	TGI (MCF7 breast)	GI50 (NCI-H23 lung)	TGI (NCI-H23 lung)	GI50 (NCI-H522 lung)	TGI (NCI-H522 lung)	GI50 (OVCAR-3 ovarian)	TGI (OVCAR-3 ovarian)	GI50 (OVCAR-8 ovarian)	TGI (OVCAR-8 ovarian)	GI50 (SN12C renal)	TGI (SN12C renal)	GI50 (SNB-19 CNS)	TGI (SNB-19 CNS)
CN1CCC2(CC1)NC(=O)c1c(c3ccc(Cl)c(Cl)c3n1C)C2C#N (stereo not given)	10.1 µM	24 µM	1.8 µM	3.83 µM	9.72 µM	23.2 µM	2.53 µM	8.83 µM	11.4 µM	25.7 µM	15.2 µM	44.8 µM	5.32 µM	12.3 µM	10.4 µM	36.6 µM	5.82 µM	31.2 µM	12.8 µM	27.4 µM
c1ccc2cc(NCNc3ccc4ccccc4c3)ccc2c1	–	40.8 µM	–	34.3 µM	–	51.3 µM	–	25.6 µM	–	30.5 µM	–	49.5 µM	–	29.2 µM	–	58.2 µM	–	25.8 µM	–	> 100 µM
C[C@@H](NC(=O)/C(C#N)=C/c1ccc([N+](=O)[O-])cc1)c1ccccc1	2.54 µM	8.84 µM	2 µM	3.71 µM	2.88 µM	8.91 µM	2.41 µM	7.65 µM	2.08 µM	5.02 µM	1.71 µM	3.47 µM	2.39 µM	5.65 µM	2.87 µM	8.05 µM	2.11 µM	4.85 µM	2.52 µM	7.31 µM
CC1(C)CC[C@]2(C(=O)O)CC[C@]3(C)C(=CC[C@@H]4[C@@]5(C)C[C@H](O)[C@H](O)[C@@](C)(C(=O)O)[C@@H]5CC[C@]43C)[C@@H]2C1	–	> 100 µM	–	> 100 µM	–	> 100 µM	–	> 100 µM	–	> 100 µM	–	> 100 µM	–	> 100 µM	–	> 100 µM	–	> 100 µM	–	> 100 µM
O=C(/C(=C/c1ccc([N+](=O)[O-])cc1)SCc1ccc(Cl)cc1)c1ccc(F)cc1	2.66 µM	7.9 µM	3.8 µM	14.9 µM	13.1 µM	35.4 µM	1.56 µM	4.78 µM	3.92 µM	21.9 µM	1.84 µM	3.76 µM	2.2 µM	5.13 µM	3.17 µM	12.7 µM	2.4 µM	7.43 µM	1.87 µM	4.11 µM
N/C(=N/N=C/c1ccccc1)N/N=C\c1ccccc1	5.2 µM	43.9 µM	3.66 µM	14.7 µM	9.71 µM	> 100 µM	3.4 µM	> 100 µM	6.78 µM	> 100 µM	5.23 µM	> 100 µM	2.66 µM	7.8 µM	6.69 µM	> 100 µM	5.6 µM	> 100 µM	> 100 µM	> 100 µM
CC(N)(/C=C/c1ccccc1)C(=O)O (stereo not given)	–	> 100 µM	–	> 100 µM	–	> 100 µM	–	> 100 µM	–	> 100 µM	–	> 100 µM	–	> 100 µM	–	> 100 µM	–	> 100 µM	–	> 100 µM

From PubChem BioAssay (NCI)
